In patent US20260356820A1, “Pyrrolidine and Imidazolidine Based DNA Polymerase Theta Inhibitors and Use Thereof” (Thomas Jefferson University, priority 2022, published 2026):

biological target: T1, human Polq polymerase domain (Homo sapiens, UniProt O75417); assay: Cy5 fluorescence assay of Polq polymerase domain inhibition; assay type: biochemical; settings: not given
T1 sequence (O75417 1792-2590): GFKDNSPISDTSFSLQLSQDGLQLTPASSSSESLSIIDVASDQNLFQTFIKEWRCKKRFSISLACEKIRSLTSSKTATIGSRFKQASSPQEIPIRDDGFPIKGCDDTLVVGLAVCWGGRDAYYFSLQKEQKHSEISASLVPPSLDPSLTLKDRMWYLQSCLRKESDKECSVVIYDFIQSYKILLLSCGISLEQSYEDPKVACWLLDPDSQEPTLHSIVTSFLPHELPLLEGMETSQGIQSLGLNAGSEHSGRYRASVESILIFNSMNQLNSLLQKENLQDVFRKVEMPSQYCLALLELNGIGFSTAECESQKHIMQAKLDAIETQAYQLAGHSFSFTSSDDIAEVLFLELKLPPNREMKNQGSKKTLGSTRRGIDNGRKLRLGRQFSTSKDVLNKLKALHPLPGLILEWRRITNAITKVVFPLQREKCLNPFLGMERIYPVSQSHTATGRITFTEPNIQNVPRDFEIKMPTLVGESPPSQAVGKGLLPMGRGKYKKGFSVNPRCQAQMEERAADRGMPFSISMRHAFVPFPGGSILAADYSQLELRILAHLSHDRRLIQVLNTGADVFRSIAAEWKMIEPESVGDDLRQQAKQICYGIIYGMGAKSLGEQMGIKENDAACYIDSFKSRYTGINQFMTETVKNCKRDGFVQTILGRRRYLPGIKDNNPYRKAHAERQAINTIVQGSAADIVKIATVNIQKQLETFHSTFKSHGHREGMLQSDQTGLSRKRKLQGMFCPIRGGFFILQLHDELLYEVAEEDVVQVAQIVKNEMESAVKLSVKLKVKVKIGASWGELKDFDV
Description: The following Cy5 fluorescence assay was used to measure the ability of compounds to inhibit Polq polymerase domain in vitro. The fluorescent based assay was performed as follows: 60 nM of the pre-annealed primer-template containing a 5′ Cy5 fluorophore conjugated template strand (SEQ ID NO:3: 5′-/5Cy5/[…]-3′), a downstream complementary oligo conjugated with a 3′ Blackhole quencher (SEQ ID NO:4: 5′-CTAAGCTCACAGTG/3IAbRQSp/-3′) and a primer strand (SEQ ID NO:5: 5′-CTGTCCTGCATGATG-3′) was mixed with 50 uM 2′-deoxyribonucleoside triphosphates (dNTPs), 0.1 mg/mL Bovine serum albumin (BSA), 0.01% NP-40, 10% glycerol, 1 mM dithiothreitol (DTT), 10 mM MgCl2, 25 mM TrisHCl pH 7.8 in the presence of 2.5% DMSO with or without various concentrations (7-point dilution series) of Polq small molecule inhibitors represented by Formula I at 37 °C in a volume of 40 μL.

Compound | IC50 [nM]
CN(C(=O)Oc1c(N2CCN(CCO)C2=O)cc(C(F)(F)F)cc1C(F)(F)F)c1ccc(F)cc1 [Example 6, 2,4-bis(trifluoromethyl)-6-(3-(2-hydroxyethyl)-2-oxoimidazolidin-1-yl)phenyl (4-fluorophenyl)(methyl)carbamate] | 3.2
CN(C(=O)Oc1c(N2CCNC2=O)cc(C(F)(F)F)cc1C(F)(F)F)c1ccc(F)cn1 [Example 52, 2-(2-oxoimidazolidin-1-yl)-4,6-bis(trifluoromethyl)phenyl (5-fluoropyridin-2-yl)(methyl)carbamate] | 11.4
Cc1nc(N(C)C(=O)Oc2c(N3CCNC3=O)cc(C(F)(F)F)cc2C(F)(F)F)ccc1F [Example 53, 2-(2-oxoimidazolidin-1-yl)-4,6-bis(trifluoromethyl)phenyl (5-fluoro-6-methylpyridin-2-yl)(methyl)carbamate] | 2.7
CN(C(=O)Oc1c(N2CCN(CCO)C2=O)cc(Cl)cc1C(F)(F)F)c1ccc(F)cc1 [Example 54, 4-chloro-2-(3-(2-hydroxyethyl)-2-oxoimidazolidin-1-yl)-6-(trifluoromethyl)phenyl (4-fluorophenyl)(methyl)carbamate] | 68
CN(C(=O)Oc1c(Cl)cc(Cl)cc1N1CCN(CCO)C1=O)c1ccc(F)cc1 [Example 55, 2,4-dichloro-6-(3-(2-hydroxyethyl)-2-oxoimidazolidin-1-yl)phenyl (4-fluorophenyl)(methyl)carbamate] | 133

same assay, conditions: 5 nM Polq polymerase domain (residues 1792-2590), 60 nM primer-template, 50 uM dNTPs, 37 °C, 18 min; read-out: IC50 (nM) Polq

Compound | IC50 [nM]
CNCC(O)CN1CCN(c2cc(C(F)(F)F)cc(C(F)(F)F)c2OC(=O)N(C)c2ccc(F)cc2)C1=O (stereo not shown) [Example 48, 2-(3-(2-hydroxy-3-(methylamino)propyl)-2-oxoimidazolidin-1-yl)-4,6-bis(trifluoromethyl)phenyl (4-fluorophenyl)(methyl)carbamate] | 5.1
[2H]C([2H])([2H])N(C(=O)Oc1c(N2CCN(C[C@@H](O)CN(C)C)C2=O)cc(C(F)(F)F)cc1C(F)(F)F)c1ccc(F)cc1 [Example 49, (S)-2-(3-(3-(dimethylamino)-2-hydroxypropyl)-2-oxoimidazolidin-1-yl)-4,6-bis(trifluoromethyl)phenyl (4-fluorophenyl)(methyl-d3)carbamate] | 7.5
[2H]C([2H])([2H])N(C(=O)Oc1c(N2CCN(C[C@H](O)CN(C)C)C2=O)cc(C(F)(F)F)cc1C(F)(F)F)c1ccc(F)cc1 [Example 50, (R)-2-(3-(3-(dimethylamino)-2-hydroxypropyl)-2-oxoimidazolidin-1-yl)-4,6-bis(trifluoromethyl)phenyl (4-fluorophenyl)(methyl-d3)carbamate] | 5.1
CN(C(=O)Cc1c(N2CCNC2=O)cc(C(F)(F)F)cc1C(F)(F)F)c1ccc(F)cc1 [Example 51, N-(4-fluorophenyl)-N-methyl-2-(2-(2-oxoimidazolidin-1-yl)-4,6-bis(trifluoromethyl)phenyl)acetamide] | 117

system: cell types harboring BRCA2 mutations (PE01, VC8, CAPAN-1; BRCA2-null HCT116 and DLD1); assay: Synergy with PARP inhibitors, clonogenic survival of BRCA2-mutated/null cells; assay type: cell-based; settings: olaparib as PARP inhibitor, Combenefit software analysis
From the text: FIG. 3A depicts a representative scatter plot and synergy plot showing clongenic survival of HCT116 BRCA2-null cells treated with varying concentrations of olaparib with DMSO or various concentrations of Example 6. FIG. 3B depicts a representative scatter plot synergy plot showing clongenic survival of DLD1 BRCA2-null cells treated with varying concentrations of olaparib with DMSO or various concentrations of Example 6. FIG. 3C depicts a representative scatter plot synergy plot showing clongenic survival of PE01 cells treated with varying concentrations of olaparib with DMSO or various concentrations of Example 6. FIG. 3D depicts a representative scatter plot synergy plot showing clongenic survival of VC8 cells treated with varying concentrations of olaparib with DMSO or various concentrations of Example 6. FIG. 3E depicts a representative scatter plot synergy plot showing clongenic survival of CAPAN-1 cells treated with varying concentrations of olaparib with DMSO or various concentrations of Example 6. FIG. 3F depicts a representative scatter plot showing clongenic survival of MDA-MB-231 cells following treatment with various concentrations of talazoparib and DMSO or various concentrations of Example 6 and representative images of colony plates. For FIG. 3A through FIG. 3F, data are presented as mean±SEM; n=3; p-values calculated by two-sample t test. […]

Compound | synergy with PARP inhibitors (clonogenic survival)
CN(C(=O)Oc1c(N2CCN(CCO)C2=O)cc(C(F)(F)F)cc1C(F)(F)F)c1ccc(F)cc1 [Example 6, 2,4-bis(trifluoromethyl)-6-(3-(2-hydroxyethyl)-2-oxoimidazolidin-1-yl)phenyl (4-fluorophenyl)(methyl)carbamate] | Synergy
